Where two headings read alike, the source gives them in different places.
Columns and labels:
PC-3 = experiment: 5α-DHT formation from [3H]testosterone by PC-3 cells; format: cell-based, human
[1] = system: 17β-steroid dehydrogenase; experiment: 4-Androstenedione formation from [3H]testosterone by PC-3 cells (17β-steroid dehydrogenase); format: cell-based, human
[2] = system: Human Prostatic Cancer Cells; experiment: Cell morphology during 2 hour incubation; format: cell-based
[3] = target: T1, 5α-Reductase of Rat Liver Microsomes (Rattus norvegicus, UniProt P24008); experiment: biochemical
T1 sequence (P24008 1-259): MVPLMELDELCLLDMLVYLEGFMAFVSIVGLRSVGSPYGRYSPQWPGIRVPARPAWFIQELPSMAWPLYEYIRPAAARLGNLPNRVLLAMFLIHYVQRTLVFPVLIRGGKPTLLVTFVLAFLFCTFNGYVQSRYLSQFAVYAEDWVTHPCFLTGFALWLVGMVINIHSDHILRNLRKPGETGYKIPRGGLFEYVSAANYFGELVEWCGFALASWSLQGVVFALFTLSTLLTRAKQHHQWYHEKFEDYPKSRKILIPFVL
Description: Briefly, the binding assay solution, in a final volume of 0.15 ml, contained microsomes (2-20 μg of protein), 0.08 μCi of [^3 H]4-MA, 0.1 mM-NADPH, 1 mM-dithiothreitol and 50 mM-potassium phosphate, pH 7.0, with or without the indicated amount of a lipid or an inhibitor preparation. Lipids were dissolved in ethanol and added in 1-5 μl volumes. Control tubes received the same amount of ethanol. After incubation at 0° C. for 1 h, the [^3 H]4-MA bound to microsomes was determined by collecting microsomes on a Whatman GF/1F glass fibre filter and washing with 10 ml of 20 mM-potassium phosphate, pH 7.0, containing 0.01% CHAPS to remove unbound [^3 H]4-MA.
Microsomes were prepared at 4° C. from a buffered 0.32M-sucrose homogenate of human liver and from the livers of adult Sprague-Dawley female rats by differential centrifugation as described previously (Liang et al., 1990), and were used in the assay of 5α-reductase activity. In some experiments, microsomes were solubilized with 0.1% polyoxyethylene ether W-1 as described previously (Liang et al., 1990), except for the substitution of polyoxyethylene ether W-1 for Lubrol-WX.

hamster flank organ = experiment: Flank organ, castrated immature male hamsters, topical treatment; format: in vivo, Syrian golden hamster
Description: One to two weeks after castration, the hair on the lower back of each animal was clipped with an electric hair clipper and then shaved weekly to expose the flank organs. The animals were divided into 5 animals/treatment group. A treatment solution (5 μl) was applied topically to the right flank organ once a day using a Pipetteman and a polypropylene disposable tip. Unless specified the left flank organ was not treated. The treatment solution contained either (a) ethanol alone (vehicle and control), (b) an androgen (T or 5α-DHT), (c) a fatty acid, or (d) a combination of an androgen and a fatty acid. The flank organ was wiped with an alcohol pad to remove residual compound before each treatment. […] The flank organs, both the treated and untreated sides, were evaluated with methods to be described below to determine the effect of these treatments of the growth of the pigmented macules and the sebaceous glands. The body weight of each animal was recorded before and after treatment.
The data are presented as mean ± standard deviation. […]

CCCCCCCCCCCCCCCCCC(=O)O [Stearic acid]
effect on 5α-reductase reduction (PC-3; 5 to 20 μM, words): did not affect | activity at 5 µM (PC-3; Homo sapiens, PC-3, 5 μM, read-out: 5α-DHT formed (% of control)): 123 ± 2% | activity at 20 µM (PC-3; Homo sapiens, PC-3, 20 μM, read-out: 5α-DHT formed (% of control)): 121 ± 5% | 4-Androstendione formed (% of control) ([1]; 5 μM): 103 ± 2 % of control | 4-Androstendione formed (% of control) ([1]; 20 μM): 106 ± 5 % of control | effect on metabolism of testosterone to 4-androstenedione (17β-steroid dehydrogenase) ([1]; words): did not affect | visible change in cell morphology [2]: did not produce any visible | inhibition at 10 µM ([3]; read-out: % Inhibition of [^3 H]4-MA binding, Table 1, 10 μM): < 10% | inhibition at 40 µM ([3]; read-out: % Inhibition of [^3 H]4-MA binding, Table 1, 40 μM): < 10% | inhibition at 200 µM ([3]; read-out: % Inhibition of [^3 H]4-MA binding, Table 1, 200 μM): < 10% | inhibition at 10 µM ([3]; read-out: % Inhibition of [^3 H]4-MA binding, Table 2, 10 μM): < 10% | inhibition at 40 µM ([3]; read-out: % Inhibition of [^3 H]4-MA binding, Table 2, 40 μM): < 10% | inhibition at 200 µM ([3]; read-out: % Inhibition of [^3 H]4-MA binding, Table 2, 200 μM): < 10% | Pigmented Macule, Untreated (L) (hamster flank organ; Table 4, 1 mg fatty acid alone, 18 days): 4.4 ± 0.4 mm^2 | Pigmented Macule, Untreated (L) (hamster flank organ; Table 4, 2 mg fatty acid alone, 18 days): 4.6 ± 1.4 mm^2 | Pigmented Macule, Untreated (L) (hamster flank organ; Table 4, T 0.5 μg + 1 mg fatty acid): 4.3 ± 0.6 mm^2 | Pigmented Macule, Untreated (L) (hamster flank organ; Table 4, T 0.5 μg + 2 mg fatty acid): 4.2 ± 0.4 mm^2 | significance vs T alone (hamster flank organ; Table 4, T + 1 mg fatty acid): N.S. | significance vs T alone (hamster flank organ; Table 4, T + 2 mg fatty acid): N.S. | inhibition of T-induced growth of pigmented macule (hamster flank organ; hamster, in vivo): did not inhibit
